Experimental data reported in BindingDB's records for doi:10.7270/Q2B27SQ0 (Nmmlsc, 2008).

Biological target: Apoptosis regulator Bcl-2 (Homo sapiens, UniProt P10415)
Test: PubChem AID 950
Conditions: not given

Sequence of Apoptosis regulator Bcl-2 (P10415 whole entry): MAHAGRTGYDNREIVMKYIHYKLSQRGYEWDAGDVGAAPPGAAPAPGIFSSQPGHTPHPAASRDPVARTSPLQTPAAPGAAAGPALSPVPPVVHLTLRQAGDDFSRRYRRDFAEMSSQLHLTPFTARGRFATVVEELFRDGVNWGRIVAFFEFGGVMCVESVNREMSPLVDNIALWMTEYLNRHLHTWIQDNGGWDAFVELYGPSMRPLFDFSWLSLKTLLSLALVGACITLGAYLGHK

| SMILES | EC50 [µM] |
| --- | --- |
| CCC(=O)N(CC)C1C(=O)C(=O)c2ccccc2C1=O (stereo unspecified) [N-ethyl-N-(1-hydroxy-3,4-dioxo-2-naphthalenyl)propanamide] | 0.98 |
| O=C1c2ccccc2-c2onc3ccc(NCCCn4ccnc4)c1c23 [SMR000044769] | 4.05 |
| Nc1c(C(=O)NCC2CCCO2)sc2nc3c(c(-c4ccco4)c12)CC/C3=C\c1ccco1 (stereo unspecified) [SMR000259502] | 5.26 |
| Nc1c(C(=O)NC2CC2)sc2nc3c(c(-c4ccco4)c12)CC/C3=C/c1ccco1 [SMR000259554] | 4.67 |
| CC(=NNC(=O)c1cc(O)c(O)c(O)c1)c1ccc([N+](=O)[O-])cc1 [SMR000312589] | 5.96 |
| CCN1/C(=C/C(C)=C/c2sc3ccccc3[n+]2CC)Sc2ccccc21 [SMR000354813] | 22.4 |

Same assay, conditions: inactive by the depositor's call

| SMILES | EC50 [µM] |
| --- | --- |
| CC(C)(C)NC(=O)COc1ccc(CNc2ccc3[nH]c(O)nc3c2)cc1 [N-tert-butyl-2-[4-[[(2-oxidanylidene-1,3-dihydrobenzimidazol-5-yl)amino]methyl]phenoxy]ethanamide] | 4.65 |
| CSc1nnc2c3cc(C)ccc3n(Cc3ccccc3)c2n1 [SMR000046397] | 29.4 |
| c1ccc(-c2nc(N3CCCCCC3)c3ccccc3n2)nc1 [SMR000046752] | 19.8 |
| CNc1ccc(Br)cc(C(=O)/C=C/c2cc(OC)ccc2OC)c1=O [SMR000115626] | 8.97 |
| O=C(Nc1ccc2nc(-c3ccco3)c(-c3ccco3)nc2c1)NC1CC1 [SMR000118524] | 9.26 |
| CCOC(=O)C1=C(Cc2ccc(OC)cc2)C(=O)c2ccccc2C1=O [SMR000136995] | 13.6 |
| O=C(Nc1cccc(C(F)(F)F)c1)c1ccc2nc(-c3ccco3)c(-c3ccco3)nc2c1 [SMR000142217] | 10.9 |
| COC(=O)c1c(C(=O)OC)c2cccc3cc(-c4ccccc4)c4ccc1c4n32 [SMR000161417] | 1.8 |
| Nc1ccc(C2=Nc3cccc4cccc(c34)N2)cc1 [SMR000175908] | 18.1 |
| C#CCn1cc(C=C2C(=O)c3ccccc3C2=O)c2ccccc21 [SMR000196125] | 13.8 |
| Cc1ccc(C=NNC(=O)CSc2nnc(-c3ccc(Cl)cc3)n2-c2ccccc2)o1 [SMR000218122] | 8.45 |
| O=C1c2ccccc2-c2onc3ccc(N4CCCC4)c1c23 [SMR000279741] | 27.9 |
| CCN(CC)C(=O)COC(=O)c1cc(-c2ccco2)nc2ccccc12 [SMR000377201] | 4.95 |
| CCOC(=O)c1nc(Nc2ccc(C(=O)OC)cc2)c2ccccc2n1 [ethyl 4-(4-methoxycarbonylanilino)quinazoline-2-carboxylate] | 15.2 |
| CN(N=Cc1ccncc1)C1=NS(=O)(=O)c2ccccc21 [isonicotinaldehyde (1,1-dioxido-1,2-benzisothiazol-3-yl)(methyl)hydrazone] | 2.44 |
